Values quoted from earlier work in patent publication US10299480B2 (priority 2014, dated 2019).

How the values were obtained:
herpes virus = settings: 10 minute exposure
adenovirus = settings: 10 minute exposure, same conditions

## N=C(NCCCCCCNC(=N)NC(=N)Nc1ccc(Cl)cc1)NC(=N)Nc1ccc(Cl)cc1.O=C(O)[C@H](O)[C@@H](O)[C@H](O)[C@H](O)CO.O=C(O)[C@H](O)[C@@H](O)[C@H](O)[C@H](O)CO [CHX, Chlorhexidine digluconate]
Herpes virus
  Reduction of the number of virus particles: 5-6 times
adenovirus
  Effect on non-enveloped virus: virtually no effect
poliovirus
  Effect on non-enveloped virus: virtually no effect
